The source of these data is ChEMBL document CHEMBL1275554, “Caspofungin-resistant Candida tropicalis strains causing breakthrough fungemia in patients at high risk for hematologic malignancies” (Antimicrob Agents Chemother, 2008).

The test system of assay [1] is Candida tropicalis. Put plainly: Antifungal activity against Candida tropicalis T7 blood stream isolate. It counts as functional.
For assay [2], the system named is Candida tropicalis. The experiment in a line: Antifungal activity against Candida tropicalis T3 blood stream isolate harboring Fks1p FLTLS/PLRDP mutant protein. The format is functional.
Assay [3] concerns Candida tropicalis. The experiment in a line: Antifungal activity against Candida tropicalis T19 blood stream isolate harboring Fks1p FLTLS/PLRDP mutant protein. It counts as functional.
In assay [4] the test system is Candida tropicalis. The experiment in a line: Antifungal activity against Candida tropicalis T26 blood stream isolate harboring Fks1p LLTLSLRDP mutant protein. The format is functional.
The test system of assay [5] is Candida tropicalis. The experiment in a line: Antifungal activity against Candida tropicalis ATCC 750. It counts as functional.
In assay [6] the test system is Candida albicans. The experiment in a line: Antifungal activity against Candida albicans ATCC 90028. It counts as functional.
The test system of assay [7] is Candida albicans. The experiment in a line: Antifungal activity against Candida albicans 205 harboring Fks1p FLTLPLRDP mutant protein. It counts as functional.
A short description of assay [8]: Inhibition of Candida tropicalis ATCC 750 glucan synthase subunit FKS1p at monophasic kinetics.
Assay [9] is described as follows: Inhibition of Candida tropicalis T7 blood stream isolate glucan synthase subunit FKS1p at monophasic kinetics.
Assay [10] has as its target T1, 1,3-beta-D-glucan synthase subunit 1 (Candida tropicalis, UniProt B6S6L8, S80P). The experiment in a line: Inhibition of Candida tropicalis T3 blood stream isolate glucan synthase subunit FKS1p with FLTLS/PLRDP mutant at monophasic kinetics.
For assay [11], the target named is T1, 1,3-beta-D-glucan synthase subunit 1. The experiment in a line: Inhibition of Candida tropicalis T3 blood stream isolate glucan synthase subunit FKS1p with FLTLS/PLRDP mutant at biphasic kinetics.
The target is the same in assay [12]. The experiment in a line: Inhibition of Candida tropicalis T19 blood stream isolate glucan synthase subunit FKS1p with FLTLS/PLRDP mutant at biphasic kinetics.
For assay [13], the target named is 1,3-beta-D-glucan synthase subunit 1 (Candida tropicalis, UniProt B6S6L8, F76L). The experiment in a line: Inhibition of Candida tropicalis T26 blood stream isolate glucan synthase subunit FKS1p with LLTLSLRDP mutant at monophasic kinetics.
The next assay concerns the target T2, Beta-1,3-glucan synthase (Candida albicans, UniProt O13383).
T2 sequence (O13383 whole entry): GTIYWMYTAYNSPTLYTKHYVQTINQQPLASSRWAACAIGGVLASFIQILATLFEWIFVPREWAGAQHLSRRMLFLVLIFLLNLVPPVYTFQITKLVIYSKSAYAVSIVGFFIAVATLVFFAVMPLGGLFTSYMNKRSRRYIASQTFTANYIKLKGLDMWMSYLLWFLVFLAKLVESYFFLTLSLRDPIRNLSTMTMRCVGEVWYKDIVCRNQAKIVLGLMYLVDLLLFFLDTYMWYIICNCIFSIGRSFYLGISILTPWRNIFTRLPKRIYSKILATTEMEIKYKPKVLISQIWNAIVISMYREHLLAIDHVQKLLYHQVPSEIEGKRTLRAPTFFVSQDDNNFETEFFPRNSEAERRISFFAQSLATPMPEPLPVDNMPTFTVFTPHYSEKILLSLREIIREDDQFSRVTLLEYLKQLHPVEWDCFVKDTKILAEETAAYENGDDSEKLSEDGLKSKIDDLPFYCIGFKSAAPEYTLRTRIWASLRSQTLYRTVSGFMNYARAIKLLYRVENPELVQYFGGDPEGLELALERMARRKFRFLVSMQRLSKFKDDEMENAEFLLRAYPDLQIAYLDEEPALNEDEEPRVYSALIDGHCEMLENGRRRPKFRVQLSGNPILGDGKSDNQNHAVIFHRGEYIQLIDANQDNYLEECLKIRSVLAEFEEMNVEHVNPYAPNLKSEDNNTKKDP
The experiment in a line: Inhibition of Candida albicans ATCC 90028 glucan synthase at monophasic kinetics.

Assay [14] can be described thus: Inhibition of Candida albicans 205 glucan synthase subunit FKS1p FLTLPLRDP mutant at monophasic kinetics.
Assay [15] concerns the target T1, 1,3-beta-D-glucan synthase subunit 1. Put plainly: Inhibition of Candida tropicalis T19 blood stream isolate glucan synthase subunit FKS1p with FLTLS/PLRDP mutant at monophasic kinetics.

pIC50: −log10 of the molar value. Converted amounts (≈) assume the structure as drawn. *1 amine or outer side, *2 acyl side, *3 side chain or, on linkers, in order; H or OH if unused. Where a SMILES comes first, the peptide text is derived from it. Bridges are numbered along the chain shown (N, C = ends). [ ]: non-standard residue; d: D form. The star is where a group is joined. hTyr(3S-OH,4S-OH,3'-OSO3H) = N[C@H](C(=O)O)[C@H](O)[C@@H](O)c1ccc(O)c(OS(=O)(=O)O)c1; pTerphenylCO(4''-OnC5H11) = CCCCCOc1ccc(-c2ccc(-c3ccc(C(=O)*)cc3)cc2)cc1; Orn(4R-OH,5R-OH) = O=C([C@H](C[C@@H](O)[C@@H](O)N[*:3])N[*:1])[*:2]; hTyr(3S-OH,4S-OH) = N[C@H](C(=O)O)[C@H](O)[C@@H](O)c1ccc(O)cc1; Pro(3S-OH,4S-Me) = C[C@H]1CN[C@H](C(=O)O)[C@H]1O; X1 = CCCCCOc1ccc(-c2cc(-c3ccc(C(=O)*)cc3)no2)cc1; Gln(3R-OH) = NC(=O)C[C@@H](O)[C@H](N)C(=O)O; Hyp = O=C(O)[C@@H]1C[C@@H](O)CN1

T1 sequence (B6S6L8 entry or part of it S80P): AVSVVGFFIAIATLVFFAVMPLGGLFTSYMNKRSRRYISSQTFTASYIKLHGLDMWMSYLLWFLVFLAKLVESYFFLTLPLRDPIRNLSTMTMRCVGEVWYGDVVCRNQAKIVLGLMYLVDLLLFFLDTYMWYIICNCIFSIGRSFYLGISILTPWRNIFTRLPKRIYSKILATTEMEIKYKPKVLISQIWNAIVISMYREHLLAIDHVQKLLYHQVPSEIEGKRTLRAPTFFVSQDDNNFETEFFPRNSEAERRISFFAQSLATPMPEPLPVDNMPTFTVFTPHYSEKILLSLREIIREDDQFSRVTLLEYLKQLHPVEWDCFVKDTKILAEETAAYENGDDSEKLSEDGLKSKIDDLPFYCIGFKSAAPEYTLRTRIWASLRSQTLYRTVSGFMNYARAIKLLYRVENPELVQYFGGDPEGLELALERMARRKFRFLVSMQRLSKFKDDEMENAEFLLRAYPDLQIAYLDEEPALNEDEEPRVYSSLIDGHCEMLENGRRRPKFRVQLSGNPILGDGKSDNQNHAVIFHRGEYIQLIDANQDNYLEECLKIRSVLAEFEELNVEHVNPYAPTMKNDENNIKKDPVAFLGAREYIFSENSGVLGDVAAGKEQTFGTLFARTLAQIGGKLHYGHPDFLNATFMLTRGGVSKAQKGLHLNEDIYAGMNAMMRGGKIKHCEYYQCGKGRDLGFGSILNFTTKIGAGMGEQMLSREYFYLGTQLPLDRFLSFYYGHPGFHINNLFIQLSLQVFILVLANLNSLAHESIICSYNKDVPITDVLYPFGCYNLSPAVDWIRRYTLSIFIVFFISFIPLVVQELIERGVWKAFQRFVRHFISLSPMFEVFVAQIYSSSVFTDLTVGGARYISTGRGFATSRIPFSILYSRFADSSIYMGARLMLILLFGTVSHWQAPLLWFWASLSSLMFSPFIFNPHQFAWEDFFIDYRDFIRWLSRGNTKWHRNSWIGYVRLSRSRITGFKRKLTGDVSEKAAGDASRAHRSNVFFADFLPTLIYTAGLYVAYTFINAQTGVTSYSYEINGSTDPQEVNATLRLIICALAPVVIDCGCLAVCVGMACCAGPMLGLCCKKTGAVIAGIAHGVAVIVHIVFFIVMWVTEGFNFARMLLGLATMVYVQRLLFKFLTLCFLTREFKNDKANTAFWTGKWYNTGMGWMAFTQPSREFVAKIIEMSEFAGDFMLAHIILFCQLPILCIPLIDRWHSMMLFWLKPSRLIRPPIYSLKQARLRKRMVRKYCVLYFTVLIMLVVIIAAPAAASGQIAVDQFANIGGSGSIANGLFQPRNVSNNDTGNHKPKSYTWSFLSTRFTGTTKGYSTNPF
Chain of 1,3-beta-D-glucan synthase subunit 1 (Candida tropicalis, UniProt B6S6L8, F76L) (B6S6L8 entry or part of it F76L): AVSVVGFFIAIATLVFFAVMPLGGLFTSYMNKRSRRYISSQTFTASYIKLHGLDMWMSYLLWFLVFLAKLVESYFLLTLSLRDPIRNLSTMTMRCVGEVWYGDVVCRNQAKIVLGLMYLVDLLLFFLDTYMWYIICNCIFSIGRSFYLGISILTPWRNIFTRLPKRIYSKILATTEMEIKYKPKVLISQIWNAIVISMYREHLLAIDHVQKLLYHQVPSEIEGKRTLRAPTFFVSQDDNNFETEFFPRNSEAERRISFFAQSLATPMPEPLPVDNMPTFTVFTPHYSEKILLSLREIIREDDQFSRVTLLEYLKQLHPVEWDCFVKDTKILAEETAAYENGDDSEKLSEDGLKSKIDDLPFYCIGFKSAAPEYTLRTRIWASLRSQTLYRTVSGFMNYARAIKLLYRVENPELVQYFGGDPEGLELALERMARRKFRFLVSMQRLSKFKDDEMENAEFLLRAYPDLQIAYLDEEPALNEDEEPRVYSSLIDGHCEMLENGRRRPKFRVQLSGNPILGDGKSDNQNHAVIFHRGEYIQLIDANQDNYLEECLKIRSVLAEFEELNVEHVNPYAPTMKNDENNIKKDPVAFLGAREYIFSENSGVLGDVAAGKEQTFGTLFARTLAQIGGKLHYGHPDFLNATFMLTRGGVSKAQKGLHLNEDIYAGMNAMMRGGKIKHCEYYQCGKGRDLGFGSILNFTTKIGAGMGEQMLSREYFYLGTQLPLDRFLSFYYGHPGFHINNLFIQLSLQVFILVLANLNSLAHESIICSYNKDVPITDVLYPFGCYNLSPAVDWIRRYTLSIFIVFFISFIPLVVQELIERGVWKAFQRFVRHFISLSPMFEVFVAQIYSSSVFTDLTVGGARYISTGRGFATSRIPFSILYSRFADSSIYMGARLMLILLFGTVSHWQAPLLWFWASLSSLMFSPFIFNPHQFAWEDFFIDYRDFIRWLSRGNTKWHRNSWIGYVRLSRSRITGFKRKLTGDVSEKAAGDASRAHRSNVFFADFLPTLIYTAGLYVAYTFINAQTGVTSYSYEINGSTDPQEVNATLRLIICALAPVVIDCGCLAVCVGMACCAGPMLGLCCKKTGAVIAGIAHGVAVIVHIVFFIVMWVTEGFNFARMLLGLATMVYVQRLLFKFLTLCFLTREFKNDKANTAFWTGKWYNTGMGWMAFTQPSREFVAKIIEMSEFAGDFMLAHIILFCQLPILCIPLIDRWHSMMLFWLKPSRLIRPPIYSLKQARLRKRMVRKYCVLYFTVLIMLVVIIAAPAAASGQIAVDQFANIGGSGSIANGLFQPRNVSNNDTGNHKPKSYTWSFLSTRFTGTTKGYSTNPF

With `OC(Cn1cncn1)(Cn1cncn1)c1ccc(F)cc1F` [FLUCONAZOLE], the minimal inhibitory concentration (MIC) with Candida tropicalis [1] was determined as 0.25 µg/mL (≈ 0.816 µM); in the assay on Candida tropicalis [2], 8 µg/mL (≈ 26.1 µM); against Candida tropicalis [3] it was 32 µg/mL (≈ 104 µM); with Candida tropicalis [4], 0.5 µg/mL (≈ 1.63 µM).
Take `CCCCCOc1ccc(-c2cc(-c3ccc(C(=O)N[C@H]4C[C@@H](O)[C@@H](O)NC(=O)[C@@H]5[C@@H](O)[C@@H](C)CN5C(=O)[C@H]([C@H](O)CC(N)=O)NC(=O)[C@H]([C@H](O)[C@@H](O)c5ccc(O)c(OS(=O)(=O)O)c5)NC(=O)[C@@H]5C[C@@H](O)CN5C(=O)[C@H]([C@@H](C)O)NC4=O)cc3)no2)cc1` [MICAFUNGIN] (X1-[Orn(4R-OH,5R-OH)]T[Hyp][hTyr(3S-OH,4S-OH,3'-OSO3H)][Gln(3R-OH)][Pro(3S-OH,4S-Me)]; lactam 1-C): the MIC with Candida tropicalis [5] was 0.06 µg/mL (≈ 0.0472 µM); against Candida tropicalis [1] it was 0.06 µg/mL (≈ 0.0472 µM); against Candida tropicalis [2], 2 µg/mL (≈ 1.57 µM); in the assay on Candida tropicalis [3] it was 2 µg/mL (≈ 1.57 µM); against Candida tropicalis [4], 0.5 µg/mL (≈ 0.394 µM); against Candida albicans [6] it was 0.03 µg/mL (≈ 0.0236 µM). For the same compound, in the assay on Candida albicans [7], the MIC was found to be 4 µg/mL (≈ 3.15 µM). Also, the IC50 is 0.007545 µg/mL (≈ 0.00594 µM) in assay [8], 0.006168 µg/mL (≈ 0.00486 µM) in assay [9] and 1.085 µg/mL (≈ 0.854 µM) in assay [14]. Moreover, the pIC50 was 9.93 in assay [10]; 6.64 in assay [11]; 6.65 in [12]; 7.23 in assay [13]; 7.83 at Beta-1,3-glucan synthase.
Consider `CCC(C)n1ncn(-c2ccc(N3CCN(c4ccc(OCC5COC(Cn6cncn6)(c6ccc(Cl)cc6Cl)O5)cc4)CC3)cc2)c1=O` (stereo not drawn) [ITRACONAZOLE], for which the minimum inhibitory concentration (MIC) came to 0.25 µg/mL (≈ 0.354 µM) against Candida tropicalis [1], 0.5 µg/mL (≈ 0.709 µM) with Candida tropicalis [2], 1 µg/mL (≈ 1.42 µM) in the assay with Candida tropicalis [3] and 0.125 µg/mL (≈ 0.177 µM) in the assay on Candida tropicalis [4].
For `C[C@@H](c1ncncc1F)[C@](O)(Cn1cncn1)c1ccc(F)cc1F` [VORICONAZOLE] the same measures were 0.06 µg/mL (≈ 0.172 µM), 1 µg/mL (≈ 2.86 µM), 2 µg/mL (≈ 5.73 µM) and 0.03 µg/mL (≈ 0.0859 µM).
For `CC[C@@H]([C@H](C)O)n1ncn(-c2ccc(N3CCN(c4ccc(OC[C@@H]5CO[C@@](Cn6cncn6)(c6ccc(F)cc6F)C5)cc4)CC3)cc2)c1=O` [POSACONAZOLE] the same measures were 0.25 µg/mL (≈ 0.357 µM), 0.25 µg/mL (≈ 0.357 µM), 1 µg/mL (≈ 1.43 µM) and 0.06 µg/mL (≈ 0.0856 µM).
`CCCCCOc1ccc(-c2ccc(-c3ccc(C(=O)N[C@H]4C[C@@H](O)[C@@H](O)NC(=O)[C@@H]5[C@@H](O)[C@@H](C)CN5C(=O)[C@H]([C@@H](C)O)NC(=O)[C@H]([C@H](O)[C@@H](O)c5ccc(O)cc5)NC(=O)[C@@H]5C[C@@H](O)CN5C(=O)[C@H]([C@@H](C)O)NC4=O)cc3)cc2)cc1` [ANIDULAFUNGIN] ({pTerphenylCO(4''-OnC5H11)}-[Orn(4R-OH,5R-OH)]T[Hyp][hTyr(3S-OH,4S-OH)]T[Pro(3S-OH,4S-Me)]; lactam 1-C): the MIC worked out at 0.06 µg/mL (≈ 0.0526 µM) with Candida tropicalis [5]; 0.12 µg/mL (≈ 0.105 µM) in the assay with Candida tropicalis [1]; 2 µg/mL (≈ 1.75 µM) against Candida tropicalis [2]; 1 µg/mL (≈ 0.877 µM) against Candida tropicalis [3]; 0.5 µg/mL (≈ 0.438 µM) against Candida tropicalis [4]; 0.03 µg/mL (≈ 0.0263 µM) in the assay with Candida albicans [6]. The same compound gave an MIC in the assay on Candida albicans [7] of 2 µg/mL (≈ 1.75 µM). For the same compound, the IC50 in [8] came to 0.004661 µg/mL (≈ 0.00409 µM); in assay [9] it was 0.002689 µg/mL (≈ 0.00236 µM); in assay [14], 0.989 µg/mL (≈ 0.867 µM). For the same compound, the pIC50 in [10] is 9.55; in assay [11] it was 6.69; in assay [15] it was 9.30; in assay [12], 6.45; in assay [13] it was 7.56; at Beta-1,3-glucan synthase, 8.79.
In the case of `CC[C@H](C)C[C@H](C)CCCCCCCCC(=O)N[C@H]1C[C@@H](O)[C@@H](NCCN)NC(=O)[C@@H]2[C@@H](O)CCN2C(=O)[C@H]([C@H](O)CCN)NC(=O)[C@H]([C@H](O)[C@@H](O)c2ccc(O)cc2)NC(=O)[C@@H]2C[C@@H](O)CN2C(=O)[C@H]([C@@H](C)O)NC1=O` [CASPOFUNGIN], the MIC stood at 0.25 µg/mL (≈ 0.229 µM) with Candida tropicalis [5]; 0.5 µg/mL (≈ 0.457 µM) in the assay on Candida tropicalis [1]; 4 µg/mL (≈ 3.66 µM) with Candida tropicalis [2]; 4 µg/mL (≈ 3.66 µM) in the assay with Candida tropicalis [3]; 1 µg/mL (≈ 0.915 µM) with Candida tropicalis [4]; 0.12 µg/mL (≈ 0.11 µM) with Candida albicans [6]. Moreover, the MIC in the assay with Candida albicans [7] is 8 µg/mL (≈ 7.32 µM). In addition, the values for the IC50 in [8], in [9] and in assay [14] were 0.002331 µg/mL (≈ 0.00213 µM), 0.007652 µg/mL (≈ 0.007 µM) and 0.2454 µg/mL (≈ 0.224 µM), respectively. In addition, the pIC50 in assay [10] is 9.55; in [11], 6.47; in [15] it was 9.57; in assay [12], 6.62; in assay [13], 7.15; on Beta-1,3-glucan synthase, 9.34.

A word on the MIC: it is the lowest concentration found to suppress growth. The term IC50 denotes the concentration that gives 50% inhibition. A higher IC50 goes with weaker potency. As usually defined, the pIC50 is the negative decadic logarithm of the IC50, by convention in mol/L. Low readings indicate a high IC50, high ones a low IC50.
